Data reported in patent US20100063008A1, “GELATINOUS ELASTOMER COMPOSITIONS” (Silipos, Inc., priority 2008, published 2010).

Columns and labels:
[1] = Exudation of active agents from gel specimens to filter paper discs, quantified by UV, MS, GC and/or HPLC after extraction; type: physicochemical; settings: for Active Agent Transferred from Gel to Filters: 37° C., 0.40 psi; for Total Active Agent Exuded from Gel: cumulative
Description: Sample filter paper discs were placed in contact with gel specimens of same diameter under constant low pressure (0.40 psi. (2.8 Mpa)) at 37° C. Multiple time-controlled exposures of the filter paper to the gel were preformed in succession to same side of gel. Quantification of active agent transferred to the filter paper discs was determined by UV, MS, GC and or HPLC analysis after extraction of active agent from the filter paper. Exudation rates was expressed as μg/unit time per unit surface area.
This compound was then divided into three aliquots' of approximately 10 grams each and poured into a 2.625″ diameter aluminum petri dish and allowed to cool to create individual gel samle discs. Subsequently, absorbent cellulose filter blotter paper was die cut to enough 2.625″ diameter discs to be employed as a wicking media for repeated exposure in direct contact with the gel compound under specific conditions as follows.
(§1) Exposure Conditions: 37-40 deg. C., Sample filter paper discs in contact with gel specimens of same diameter were stacked in […]. aluminum petri dishes, gel specimen diameter 2.625″×0.125″ thick, filter paper disc diameter 2.625″ with another petri dish and a 1 kg dead weight on top of stack. Pressure calculated at ˜0.407 psi. (2.8 Mpa) constant. Two replicates per test condition. Repeat exposures at 3 hours then repeat three exposures of 18 hours each, changing discs but keeping same gel specimen and same side of each gel specimen in contact with each successive filter paper disc sample.
The filter paper disc specimens aa through kk were then sent to an analytical laboratory for HPLC and GC analysis along with a small sample of each individual raw ingredient so that the HPLC and GC equipment could be calibrated for the protocol being employed by the lab. This calibration allowed for determining the maximum recoverable (measurable) amount of each ingredient that could be measured using these techniques and would later be used to correct the data. The analytical laboratory then detected and measured the amount of each of the added active agents that was flushed out of the filter paper discs using wet chemistry techniques known to those skilled in the art.
The analytical data was interpreted, and the amounts of each ingredient which was exuded into each filter paper blotter disc specimen, and subsequently extracted using wet chemistry, were then entered into a data analysis spreadsheet and adjusted based on the Analytical Recovery Rate to determine actual concentration of each ingredient extracted.

[2] = Total weight of exudate (oil) absorbed by filter paper blotter discs and theoretical amount of each ingredient exuded; type: physicochemical
Description: as §1
Data was calculated to determine the total weight of exudate absorbed by each individual sample filter paper blotter disc test specimen. Calculations were then performed based upon the ratios of ingredients in the gel disc formula to determine the theoretical amount of each ingredient that could have been exuded from the oil if the oil contained the same ratio of ingredients as contained in the control oil sample and in the gel.

In the case of `O=c1c(O)c(-c2ccc(O)c(O)c2)oc2cc(O)cc(O)c12` [Quercetin], the “Active Agent Transferred from Gel to Filters” value (from here on “Active Agent Transferred”) ([1]; Gel Specimen Number 1, 1 h filter exposure, time 0-1 h) is reported as 10 μg per filter, the “Active Agent Transferred” value ([1]; Gel Specimen Number 1, 3 h filter exposure, time 1-4 h) is reported as 11 μg per filter and the “Active Agent Transferred” value ([1]; Gel Specimen Number 1, 18 h filter exposure, time 4-22 h) is reported as 21 μg per filter. For the same compound, the “Active Agent Transferred” value ([1]; Gel Specimen Number 1, 18 h filter exposure, time 22-40 h) was 31 μg per filter, the “Active Agent Transferred” value ([1]; Gel Specimen Number 1, 18 h filter exposure, time 40-58 h) was 15 μg per filter and the “Total Active Agent Exuded from Gel” value ([1]; Gel Specimen Number 1, Time 1 h) was 10 µg. For the same compound, the “Total Active Agent Exuded from Gel” value ([1]; Gel Specimen Number 1, Time 4 h) was 21 µg, the “Total Active Agent Exuded from Gel” value ([1]; Gel Specimen Number 1, Time 22 h) was 42 µg and the “Total Active Agent Exuded from Gel” value ([1]; Gel Specimen Number 1, Time 40 h) was 72 µg. The “Total Active Agent Exuded from Gel” value ([1]; Gel Specimen Number 1, Time 58 h) was 87 µg, the “Active Agent Transferred” value ([1]; Gel Specimen Number 2, 1 h filter exposure, time 0-1 h) was 12 μg per filter and the “Active Agent Transferred” value ([1]; Gel Specimen Number 2, 3 h filter exposure, time 1-4 h) was 15 μg per filter. For the same compound, the “Active Agent Transferred” value ([1]; Gel Specimen Number 2, 18 h filter exposure, time 4-22 h) was 30 μg per filter, the “Active Agent Transferred” value ([1]; Gel Specimen Number 2, 18 h filter exposure, time 22-40 h) was 21 μg per filter and the “Active Agent Transferred” value ([1]; Gel Specimen Number 2, 18 h filter exposure, time 40-58 h) was 16 μg per filter. The “Total Active Agent Exuded from Gel” value ([1]; Gel Specimen Number 2, Time 1 h) was 12 µg, the “Total Active Agent Exuded from Gel” value ([1]; Gel Specimen Number 2, Time 4 h) was 27 µg and the “Total Active Agent Exuded from Gel” value ([1]; Gel Specimen Number 2, Time 22 h) was 57 µg. The “Total Active Agent Exuded from Gel” value ([1]; Gel Specimen Number 2, Time 40 h) was 78 µg, the “Total Active Agent Exuded from Gel” value ([1]; Gel Specimen Number 2, Time 58 h) was 94 µg and the “Quantitative Analysis - Islechem u-gram extraction” value (from here on “Quantitative Analysis”) ([1]; Specimen aa, Hours 1, Cummulative Hours 1) was 9 u-gram. For the same compound, the “Quantitative Analysis” value ([1]; Specimen bb, Hours 1, Cummulative Hours 1) was 11 u-gram, the “Quantitative Analysis” value ([1]; Specimen cc, Hours 3, Cummulative Hours 4) was 9.4 u-gram and the “Quantitative Analysis” value ([1]; Specimen dd, Hours 3, Cummulative Hours 4) was 13.2 u-gram. For the same compound, the “Quantitative Analysis” value ([1]; Specimen ee, Hours 18, Cummulative Hours 22) was 18.6 u-gram, the “Quantitative Analysis” value ([1]; Specimen ff, Hours 18, Cummulative Hours 22) was 28.6 u-gram and the “Quantitative Analysis” value ([1]; Specimen gg, Hours 18, Cummulative Hours 40) was 27.5 u-gram. For the same compound, the “Quantitative Analysis” value ([1]; Specimen hh, Hours 18, Cummulative Hours 40) was 19 u-gram, the “Quantitative Analysis” value ([1]; Specimen ii, Hours 18, Cummulative Hours 58) was 13.2 u-gram and the “Quantitative Analysis” value ([1]; Specimen kk, Hours 18, Cummulative Hours 58) was 14.2 u-gram. For the same compound, the “Estimated grams of ingredient exuded (theoretical amount from ratios of ingredients in the gel disc formula)” value ([2]; Sample aa, Test Disc 1, Exposed 1 hours) was 0.0009 grams, the “Estimated grams of ingredient exuded (theoretical amount from ratios of ingredients in the gel disc formula)” value ([2]; Sample bb, Test Disc 1 Replicate, Exposed 1 hours) was 0.0012 grams and the “Estimated grams of ingredient exuded (theoretical amount from ratios of ingredients in the gel disc formula)” value ([2]; Sample cc, Test Disc 2, Exposed 3 hours) was 0.0009 grams. For the same compound, the “Estimated grams of ingredient exuded (theoretical amount from ratios of ingredients in the gel disc formula)” value ([2]; Sample dd, Test Disc 2 Replicate, Exposed 3 hours) was 0.0014 grams, the “Estimated grams of ingredient exuded (theoretical amount from ratios of ingredients in the gel disc formula)” value ([2]; Sample ee, Test Disc 3, Exposed 18 hours) was 0.0024 grams and the “Estimated grams of ingredient exuded (theoretical amount from ratios of ingredients in the gel disc formula)” value ([2]; Sample ff, Test Disc 3 Replicate, Exposed 18 hours) was 0.0024 grams. The “Estimated grams of ingredient exuded (theoretical amount from ratios of ingredients in the gel disc formula)” value ([2]; Sample gg, Test Disc 4, Exposed 18 hours) was 0.0025 grams, the “Estimated grams of ingredient exuded (theoretical amount from ratios of ingredients in the gel disc formula)” value ([2]; Sample hh, Test Disc 4 Replicate, Exposed 18 hours) was 0.0022 grams and the “Estimated grams of ingredient exuded (theoretical amount from ratios of ingredients in the gel disc formula)” value ([2]; Sample ii, Test Disc 5, Exposed 18 hours) was 0.0020 grams. For the same compound, the “Estimated grams of ingredient exuded (theoretical amount from ratios of ingredients in the gel disc formula)” value ([2]; Sample kk, Test Disc 5 Replicate, Exposed 18 hours) was 0.0020 grams.
